Assays:
NCI-H460 = assay: Growth inhibition of human NCI-H460 cells after 48 hrs by sulforhodamine B assay; assay type: functional; conditions: NCI-H460, 48 h
UACC-62 = assay: Growth inhibition of human UACC62 cells after 48 hrs by sulforhodamine B assay; assay type: functional; conditions: UACC-62, 48 h
SN12C = assay: Growth inhibition of human SN12C cells after 48 hrs by sulforhodamine B assay; assay type: functional
[1] = Growth inhibition of human Hs 578T cells after 48 hrs by sulforhodamine B assay; assay type: functional
A498 = assay: Growth inhibition of human A498 cells after 48 hrs by sulforhodamine B assay; assay type: functional; conditions: A498, 48 h
EKVX = assay: Growth inhibition of human EKVX cells after 48 hrs by sulforhodamine B assay; assay type: functional
OVCAR-8 = assay: Growth inhibition of human OVCAR8 cells after 48 hrs by sulforhodamine B assay; assay type: functional; conditions: OVCAR-8, 48 h
HOP-92 = assay: Growth inhibition of human HOP92 cells after 48 hrs by sulforhodamine B assay; assay type: functional; conditions: HOP-92, 48 h
SF-295 = assay: Growth inhibition of human SF295 cells after 48 hrs by sulforhodamine B assay; assay type: functional; conditions: SF-295, 48 h
UO-31 = assay: Growth inhibition of human UO31 cells after 48 hrs by sulforhodamine B assay; assay type: functional; conditions: UO-31, 48 h
IGROV-1 = assay: Growth inhibition of human IGROV1 cells after 48 hrs by sulforhodamine B assay; assay type: functional; conditions: IGROV-1, 48 h
SK-MEL-5 = assay: Growth inhibition of human SK-MEL-5 cells after 48 hrs by sulforhodamine B assay; assay type: functional; conditions: SK-MEL-5, 48 h
NCI-H322M = assay: Growth inhibition of human NCI-H322M cells after 48 hrs by sulforhodamine B assay; assay type: functional
OVCAR-4 = assay: Growth inhibition of human OVCAR4 cells after 48 hrs by sulforhodamine B assay; assay type: functional; conditions: OVCAR-4, 48 h
HL-60 = assay: Growth inhibition of human HL-60(TB) cells after 48 hrs by sulforhodamine B assay; assay type: functional; conditions: HL-60, 48 h
UACC-257 = assay: Growth inhibition of human UACC257 cells after 48 hrs by sulforhodamine B assay; assay type: functional; conditions: UACC-257, 48 h
MOLT-4 = assay: Growth inhibition of human MOLT4 cells after 48 hrs by sulforhodamine B assay; assay type: functional; conditions: MOLT-4, 48 h
NCI-H226 = assay: Growth inhibition of human NCI-H226 cells after 48 hrs by sulforhodamine B assay; assay type: functional; conditions: NCI-H226, 48 h
SNB-75 = assay: Growth inhibition of human SNB75 cells after 48 hrs by sulforhodamine B assay; assay type: functional; conditions: SNB-75, 48 h
KM12 = assay: Growth inhibition of human KM12 cells after 48 hrs by sulforhodamine B assay; assay type: functional; conditions: KM12, 48 h
CAKI-1 = assay: Growth inhibition of human Caki1 cells after 48 hrs by sulforhodamine B assay; assay type: functional; conditions: CAKI-1, 48 h
SF-539 = assay: Growth inhibition of human SF539 cells after 48 hrs by sulforhodamine B assay; assay type: functional; conditions: SF-539, 48 h
SNB-19 = assay: Growth inhibition of human SNB19 cells after 48 hrs by sulforhodamine B assay; assay type: functional; conditions: SNB-19, 48 h
[2] = Growth inhibition of human […] cells after 48 hrs by sulforhodamine B assay; assay type: functional
Malme-3M = assay: Growth inhibition of human MALME-3M cells after 48 hrs by sulforhodamine B assay; assay type: functional
SK-MEL-2 = assay: Growth inhibition of human SK-MEL-2 cells after 48 hrs by sulforhodamine B assay; assay type: functional; conditions: SK-MEL-2, 48 h
SW-620 = assay: Growth inhibition of human SW620 cells after 48 hrs by sulforhodamine B assay; assay type: functional; conditions: SW-620, 48 h
OVCAR-3 = assay: Growth inhibition of human OVCAR-3 cells after 48 hrs by sulforhodamine B assay; assay type: functional; conditions: OVCAR-3, 48 h
PC-3 = assay: Growth inhibition of human PC3 cells after 48 hrs by sulforhodamine B assay; assay type: functional; conditions: PC-3, 48 h
Plasmodium falciparum [3] = assay: Antimalarial activity after 72 hrs against chloroquine-resistant Plasmodium falciparum W2 infected erythrocytes by LDH assay; assay type: functional, organism-based; conditions: W2, 72 h
NCI-H23 = assay: Growth inhibition of human NCI-H23 cells after 48 hrs by sulforhodamine B assay; assay type: functional; conditions: NCI-H23, 48 h
K562 = assay: Growth inhibition of human K562 cells after 48 hrs by sulforhodamine B assay; assay type: functional; conditions: K562, 48 h
T47D = assay: Growth inhibition of human T47D cells after 48 hrs by sulforhodamine B assay; assay type: functional
SK-OV-3 = assay: Growth inhibition of human SKOV3 cells after 48 hrs by sulforhodamine B assay; assay type: functional; conditions: SK-OV-3, 48 h
HCT-116 = assay: Growth inhibition of human HCT116 cells after 48 hrs by sulforhodamine B assay; assay type: functional; conditions: HCT-116, 48 h
BT-549 = assay: Growth inhibition of human BT549 cells after 48 hrs by sulforhodamine B assay; assay type: functional; conditions: BT-549, 48 h
MCF7 = assay: Growth inhibition of human MCF7 cells after 48 hrs by sulforhodamine B assay; assay type: functional; conditions: MCF7, 48 h
Plasmodium falciparum [4] = assay: Antimalarial activity after 72 hrs against chloroquine-sensitive Plasmodium falciparum D6 infected in erythrocytes by LDH assay; assay type: functional, organism-based; conditions: D6, 72 h
MDA-MB-231 = assay: Growth inhibition of human MDA-MB-231 cells after 48 hrs by sulforhodamine B assay; assay type: functional; conditions: MDA-MB-231, 48 h
SF-268 = assay: Growth inhibition of human SF268 cells after 48 hrs by sulforhodamine B assay; assay type: functional; conditions: SF-268, 48 h
ACHN = assay: Growth inhibition of human ACHN cells after 48 hrs by sulforhodamine B assay; assay type: functional
LOX IMVI = assay: Growth inhibition of human LOXIMVI cells after 48 hrs by sulforhodamine B assay; assay type: functional
A549 = assay: Growth inhibition of human A549 cells after 48 hrs by sulforhodamine B assay; assay type: functional; conditions: A549, 48 h
OVCAR-5 = assay: Growth inhibition of human OVCAR5 cells after 48 hrs by sulforhodamine B assay; assay type: functional; conditions: OVCAR-5, 48 h
NCI-H522 = assay: Growth inhibition of human NCI-H522 cells after 48 hrs by sulforhodamine B assay; assay type: functional; conditions: NCI-H522, 48 h
[5] = Cytotoxicity against african green monkey Vero cells after 48 hrs by neutral red assay; assay type: cell-based; conditions: chlorocebus sabaeus, read-out: TC50
DU-145 = assay: Growth inhibition of human DU145 cells after 48 hrs by sulforhodamine B assay; assay type: functional; conditions: DU-145, 48 h
HCC 2998 = assay: Growth inhibition of human HCC2998 cells after 48 hrs by sulforhodamine B assay; assay type: functional; conditions: HCC 2998, 48 h
MDA-N = assay: Growth inhibition of human MDA-N cells after 48 hrs by sulforhodamine B assay; assay type: functional
[6] = Selectivity index, ratio of TC50 for african green monkey (Cercopithecus aethiops) Vero cells to IC50 for chloroquine-sensitive Plasmodium falciparum D6; assay type: toxicity, cell-based
SR = assay: Growth inhibition of human SR cells after 48 hrs by sulforhodamine B assay; assay type: functional

## C[C@H]1[C@@H](OCC(CO[C@H]2O[C@@H]3O[C@@]4(C)CC[C@H]5[C@H](C)CC[C@@H]([C@H]2C)[C@@]35OO4)OC(=O)CCC(=O)O)O[C@@H]2O[C@@]3(C)CC[C@H]4[C@H](C)CC[C@@H]1[C@@]24OO3 (stereo not given in full)
NCI-H460
  GI50: 33 nM
UACC-62
  GI50: 77 nM
SN12C
  GI50: 16 nM
[1]
  GI50: 186 nM
A498
  GI50: 13800 nM
EKVX
  GI50: 470 nM
OVCAR-8
  GI50: 15 nM
HOP-92
  GI50: 121 nM
SF-295
  GI50: 34 nM
UO-31
  GI50: 355 nM
IGROV-1
  GI50: 11100 nM
SK-MEL-5
  GI50: 147 nM
NCI-H322M
  GI50: 10200 nM
OVCAR-4
  GI50: 58 nM
HL-60
  GI50: 11 nM
UACC-257
  GI50: 46 nM
MOLT-4
  GI50: 290 nM
NCI-H226
  GI50: 48 nM
SNB-75
  GI50: 22100 nM
KM12
  GI50: < 10 nM
CAKI-1
  GI50: 44 nM
SF-539
  GI50: 616 nM
SNB-19
  GI50: 10100 nM
[2]
  GI50: < 10 nM
Malme-3M
  GI50: 4050 nM
SK-MEL-2
  GI50: 5200 nM
SW-620
  GI50: 29 nM
OVCAR-3
  GI50: 20 nM
PC-3
  GI50: < 10 nM
Plasmodium falciparum [3]
  IC50: 2100 nM
NCI-H23
  GI50: 10 nM
K562
  GI50: 230 nM
T47D
  GI50: < 10 nM
SK-OV-3
  GI50: 27200 nM
HCT-116
  GI50: < 10 nM
BT-549
  GI50: 724 nM
MCF7
  GI50: < 10 nM
Plasmodium falciparum [4]
  IC50: 1400 nM
MDA-MB-231
  GI50: 345 nM
SF-268
  GI50: 2180 nM
ACHN
  GI50: 126 nM
LOX IMVI
  GI50: < 10 nM
A549
  GI50: 69 nM
OVCAR-5
  GI50: < 10 nM
NCI-H522
  GI50: 63 nM

## C[C@H]1[C@@H](OCCO[C@H]2O[C@@H]3O[C@@]4(C)CC[C@H]5[C@H](C)CC[C@@H]([C@H]2C)[C@@]35OO4)O[C@@H]2O[C@@]3(C)CC[C@H]4[C@H](C)CC[C@@H]1[C@@]24OO3
NCI-H460
  GI50: 150 nM
UACC-62
  GI50: 343 nM
SN12C
  GI50: 540 nM
[1]
  GI50: 656 nM
A498
  GI50: 77200 nM
EKVX
  GI50: 146 nM
OVCAR-8
  GI50: 179 nM
[5]
  CC50 at 48 h: > 80000 nM
HOP-92
  GI50: 149 nM
SF-295
  GI50: 800 nM
UO-31
  GI50: 469 nM
IGROV-1
  GI50: 65 nM
SK-MEL-5
  GI50: 316 nM
DU-145
  GI50: 220 nM
NCI-H322M
  GI50: > 100000 nM
OVCAR-4
  GI50: 36 nM
HL-60
  GI50: 29 nM
UACC-257
  GI50: 343 nM
MOLT-4
  GI50: 42 nM
HCC 2998
  GI50: 6920 nM
NCI-H226
  GI50: 321 nM
SNB-75
  GI50: 887 nM
KM12
  GI50: 81 nM
CAKI-1
  GI50: 297 nM
SF-539
  GI50: 300 nM
SNB-19
  GI50: > 100000 nM
[2]
  GI50: < 10 nM
Malme-3M
  GI50: 504 nM
SK-MEL-2
  GI50: 243 nM
SW-620
  GI50: 70 nM
PC-3
  GI50: 10 nM
Plasmodium falciparum [3]
  IC50: 1200 nM
NCI-H23
  GI50: 1150 nM
K562
  GI50: 14 nM
T47D
  GI50: 15 nM
SK-OV-3
  GI50: 798 nM
HCT-116
  GI50: 26 nM
BT-549
  GI50: 14300 nM
MCF7
  GI50: 34 nM
MDA-N
  GI50: 219 nM
Plasmodium falciparum [4]
  IC50: 1700 nM
[6]
  selectivity ratio: > 48
MDA-MB-231
  GI50: 15000 nM
SF-268
  GI50: 460 nM
ACHN
  GI50: 257 nM
LOX IMVI
  GI50: 72 nM
SR
  GI50: 77 nM
A549
  GI50: 63 nM
OVCAR-5
  GI50: 83 nM
NCI-H522
  GI50: 69 nM
